Test results as given in patent publication US8877908B2, “Stimulus-responsive apta chelamers” (The Administrators of the Tulane Educational Fund, priority 2008, dated 2014).
Read-outs that look alike come from different tables or passages of the source.

What was measured:
[1] = target: T1, streptavidin (Streptomyces avidinii, UniProt P22629); assay: Streptavidin-immobilized microplate assay, hemin/H2O2 oxidation of ABTS, absorbance at 414 nm; settings: 5 μM ODN with 5 μM hemin, 1 h incubation, washed, ABTS 2 mM
T1 construct: purchased Thermo Fisher Scientific (NUNC)
T1 sequence (P22629 25-183): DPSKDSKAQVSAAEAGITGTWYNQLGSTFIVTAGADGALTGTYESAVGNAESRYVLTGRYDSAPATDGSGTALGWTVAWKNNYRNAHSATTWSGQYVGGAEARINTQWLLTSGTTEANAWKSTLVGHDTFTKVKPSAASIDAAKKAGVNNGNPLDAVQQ
Description: As shown schematically in FIG. 28, streptavidin-immobilized, NUNC 96 well microplates were obtained from Thermo Fisher Scientific. Each well was pre-washed three times with 100 μL of PBS buffer (20 mM NaH2PO4, 30 mM Na2HPO4, 100 mM NaCl, pH 7.4). To each well, 100 μL of sample ODNs (5 μM, previously annealed from 95° C.) with hemin (5 μM) in Hepes buffer (50 mM HEPES, 20 mM KCl, 200 mM NaCl, 1% DMSO, 0.05% Triton X-100, pH 8.0) was incubated for one hour with gentle agitation. Sample ODN solutions were then removed by inversion, and each well washed three times with PBS buffer. Plate wells were then refilled with 98.5 μL of the Hepes buffer containing ABTS (2,2′-azino-bis(3-ethylbenzthiazoline-6-sulphonic acid)). Hydrogen peroxide (2 mM) was then introduced to each well bringing the total assay volume to 100 μL and total ABTS concentration to 2 mM. Visible light absorbance at 414 nm was then immediately followed on a Molecular Devices SpectraMax 190 microplate reader (FIG. 27).

[2] = target: T2, bovine trypsin (Bos taurus, UniProt P00760); assay: Fluorescence anisotropy titration of fluorescein-labelled ODNs with increasing trypsin; assay type: binding; settings: for change of trypsin affinity on lowering salt to 5 mM KCl, 25 mM Hepes, pH 7.4: low salt versus high salt; for Kd: preformed quadruplex, 2 nM ODN
T2 construct: purchased Sigma Aldrich; host or cells: bovine pancreas
T2 sequence (P00760 24-246): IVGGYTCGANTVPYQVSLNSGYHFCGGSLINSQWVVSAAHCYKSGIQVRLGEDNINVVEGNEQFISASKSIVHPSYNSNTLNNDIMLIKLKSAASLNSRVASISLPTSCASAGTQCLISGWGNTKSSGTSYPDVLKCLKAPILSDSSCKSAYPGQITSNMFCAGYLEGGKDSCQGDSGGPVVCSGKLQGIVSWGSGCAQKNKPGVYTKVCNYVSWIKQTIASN
Description: The next step was to determine whether the intramolecular quadruplex conformation of AC 1 leads to enhanced affinity towards trypsin as a result of bidentate binding (FIG. 15, pathway A). […] AC 1 and ODNs 2 through 4 were first incubated in the presence of potassium cations to induce the quadruplex fold. The preformed quadruplexes were then incubated with increasing concentrations of trypsin at 25° C. (25 mM KCl, 200 mM NaCl, 25 mM Hepes, pH 7.4) for 30 min. Preliminary fluorescence anisotropy studies were conducted to ascertain that equilibrium was reached after 30 min and that there was no significant quenching of the fluorescein emission. The anisotropy associated with the fluorescein emission was followed at 525 nm (excitation at 495 nm). The resultant binding isotherms (FIG. 14) were fitted using non-linear regression to a 1:1 binding stoichiometry. […] In fact, the dissociation constant was determined to be 8.1×10^−7 M, a value that indicates a greater than 100 and 30 fold binding enhancement when compared to monodentate controls ODN 3 and ODN 2, respectively. […] This dissociation constant is attributed to non-specific interactions between bovine trypsin and ODN 4, since trypsin (pI=10.5) is positively charged at pH=7.4 and thus can potentially associate with the negatively charged DNA backbone. Support for such non-specific interactions comes from incubation of trypsin with ODN 4 where the concentration of salts were decreased to only 5 mM KCl, 25 mM Hepes, pH 7.4 (see, e.g., FIG. 23).
Immediately prior to each fluorescence polarization experiment, fresh stock solutions of trypsin were made in Hepes buffer (20 mM KCl, 200 mM NaCl, 25 mM Hepes, pH 7.4). Concentration of the trypsin in the stock solutions were determined using ultra-violet absorbance at 280 nm (ε=37669 M^−1cm^−1). Serial dilutions from the stock solution of trypsin were made into eppendorf tubes (spanning a range from 1×10^−9 to 1×10^−3M). To these trypsin-containing tubes were added aliquots of ODNs, such that the total concentration of ODNs in each eppendorf tube was 2 nM. After gently agitating, 150 uL from each eppendorf was transferred to respective borosilicate glass culture tubes and the tubes were allowed to equilibrate for 30 minutes at 25° C. (preliminary fluorescence anisotropy studies were conducted to ascertain that equilibrium was reached after 30 min and that there was no significant quenching of the fluorescein emission). Fluorescence polarization at 25° C. was determined on a Molecular Probes Beacon 2000 Fluorescence Polarization Instrument, using 495 and 525 nm narrow band pass filters for excitation and emission, respectively. Values of millipolarization (mP) from the Beacon 2000 were converted to millianisotropy (mA) using equation 1, where A is the anisotropy value, and P is the observed polarization.
1:1 (trypsin:ODN) binding mode: Anisotropy was plotted against trypsin (receptor protein) concentration and fitted to Equation 2 (a single-site model without receptor depletion), wherein Af is the anisotropy of the unbound ODN, Ab is the anisotropy of the bound ODN, Or is the total added ODN concentration (in M units), and Kd is the dissociation constant. Non-linear regression analysis using Origin 8.0 software was used for fitting the experimental data.
Cooperative binding mode: Binding equilibrium best described as cooperative binding was fitted to the Hill equation (Equation 3), where the fluorescence quantum yield of fluorescein is constant and the ODN substrate is limiting. R is the total protein concentration, R1/2 (or [trypsin]1/2) is the protein concentration required for half-maximal binding, and h is the Hill coefficient.

[3] = target: thrombin (Homo sapiens, UniProt P00734); settings: literature; cited from earlier work
[4] = 5 mM KCl, 25 mM Hepes, pH 7.4, read-out: dissociation constant (Kd) for trypsin, low-salt conditions
[5] = high salt (20 or 25 mM KCl, 200 mM NaCl, 25 mM Hepes, pH 7.4), 25° C., 1:1 fit, read-out: dissociation constant (Kd) for trypsin

AC-X1: hemin binding aptamer core (SEQ ID NO:9) with biotin as small molecule handle for streptavidin (TGGGTAGGGCGGGTTGGGT; DNA, backbone and methylation of C not given here; biotin tethered via linker)
absorbance change at 414 nm versus control HBA well [1]: greater absorbance change

AC 1 (TTGGTTGGTGTGGTTGGT; 5' dT fluorescein conjugate, ba and ipt arms attached, further chemistry not given here)
potency of quadruplex form in binding trypsin relative to double helical structure (duplex 1:5) ([2]; Kd of quadruplex versus [trypsin]1/2 of duplex): about 20 times
change of trypsin affinity on lowering salt to 5 mM KCl, 25 mM Hepes, pH 7.4 [2]: only slight change in affinity
Kd [2, 4]: 2.8 µM
Kd [2, 5]: 0.81 µM
binding enhancement compared to monodentate control ODN 2 ([2]; ratio of Kd values, high salt): > 30 fold
binding enhancement compared to monodentate control ODN 3 ([2]; ratio of Kd values, high salt): greater than 100 fold

ODN 3 (TTGGTTGGTGTGGTTGGT; 3' ipt arm attached, fluorescein-dT conjugate, further chemistry not given here)
Kd [2, 5]: 90 µM

ODN 2 (TTGGTTGGTGTGGTTGGT; 5' ba arm attached, fluorescein-dT conjugate, further chemistry not given here)
Kd [2, 5]: 29 µM

ODN 4: 5′-TTGGTTGGTGTGGTTGGT-3′, no arms, 5′ terminal dT bearing fluorescein; negative control (listed as DNA, chemistry not fully specified)
change of trypsin affinity on lowering salt to 5 mM KCl, 25 mM Hepes, pH 7.4 [2]: significant decrease in the Kd
Kd [2, 4]: 31 µM
Kd [2, 5]: 2900 µM

thrombin binding aptamer: core sequence 5′-GGTTGGTGTGGTTGG-3′ (SEQ ID NO:6)
dissociation constant (Kd) of complex with thrombin [3]: micromolar range
